Reference: patent US6287840A (Axys Pharmaceuticals, Inc., priority 1999, dated 2001)

What was measured:
Assay type in all cases: biochemical
[1] = target: T1, Cathepsin B from human placenta (Homo sapiens, UniProt P07858); assay: Inhibition of cathepsin B, Z-Arg-Arg-AMC fluorescence progress curves; conditions: for k/KI (kirr/KI): values without asterisk
T1 construct: Cathepsin B from human placenta, obtained from Sigma; purchased Sigma; host or cells: human placenta (tissue)
Method: Stock solutions of the various inhibitors (10 mM) were made in DMF; dilutions were made in the same solvent. Cathepsin B from human placenta, obtained from Sigma, was approximately 10 nM in the assay. The assay buffer contained 50 mM phosphate at pH 6.2, 2.5 mM dithiothreitol (DTT), and 2.5 mM ethylenediaminetetraacetic acid (EDTA). The substrate for cathepsin B was 50 μM Z-Arg-Arg-AMC (carbobenzyloxyarginylarginylaminomethylcoumarin). The assays were initiated at 25° C. by addition of enzyme to 2 mL of assay buffer containing the substrate and the various inhibitors (30-0.001 (μM). The increase in fluorescence at 460 nm with excitation at 380 nm was followed with time, and the assay was linear throughout the range observed. Inactivation of cathepsin B was indicated by a downward curve in the increase in fluorescence with time. In the absence of inhibitors, the enzymatic production of free AMC was linear throughout the time course of inactivation examined. Data points were collected over at least 3 half-times of inactivation, and in duplicate. The inhibition progress curves were analyzed using non-linear curve fitting software to compute the kobs values. Approximate second-order inactivation constants (kobs /[I]) were calculated for all compounds. For selected inhibitors, plots of 1/[I] vs. 1/kobs yielded the true constants kirr, KI, and kirr /KI, and were corrected for the presence of substrate by dividing KI (app.) by {1+[S]/Km }.

cruzain, from T. cruzi = cruzain, from T. cruzi (Trypanosoma cruzi, UniProt P25779); assay: Inhibition of cruzain, as for cathepsin L; conditions: for k/KI (kirr/KI): values without asterisk
Sequence of cruzain, from T. cruzi (P25779 123-337 limits assumed): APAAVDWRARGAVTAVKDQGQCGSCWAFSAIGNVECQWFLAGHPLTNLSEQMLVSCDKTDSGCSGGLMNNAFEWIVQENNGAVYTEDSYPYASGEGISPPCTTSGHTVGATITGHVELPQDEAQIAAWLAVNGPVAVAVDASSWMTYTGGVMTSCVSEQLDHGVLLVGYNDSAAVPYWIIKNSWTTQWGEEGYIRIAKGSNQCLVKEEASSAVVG
Method: (§1) Stock solutions of the various inhibitors (10 mM) were made in DMF; dilutions were made in the same solvent. Cathepsin L from rat liver, (see Mason et al., Biochem. J. 226:233-241 (1985)) was approximately 1 nM in the assay. The assay buffer contained 50 mM phosphate at pH 6:2, 2.5 mM dithiothreitol (DTT), and 2.5 mM ethylenediaminetetraacetic acid (EDTA). The substrate for cathepsin L was 5 μM Z-Phe-Arg-AMC (carbobenzyloxyphenylalanylarginylaminomethylcoumarin). The assays were initiated at 25° C. by addition of enzyme to 2 mL of assay buffer containing the substrate and the various inhibitors (30-0.001 μM). The increase in fluorescence at 460 nm with excitation at 380 nm was followed with time. Inactivation of cathepsin L was indicated by a downward curve in the increase in fluorescence with time. In the absence of inhibitors, the enzymatic production of free AMC was linear throughout the time course of inactivation examined. Data points were collected over at least 3 half-times of inactivation. The inhibition progress curves were analyzed using non-linear curve fitting software to compute the kobs values. Approximate second-order inactivation constants (kobs /[I]) were calculated for all compounds. For selected inhibitors, plots of 1/[I] vs. 1/kobs yielded the true constants kirr, KI, and kirr/KI and were corrected for the presence of substrate by dividing KI (app.) by (1+[S]/Km).
Inhibition of cruzain, from T. cruzi, (see Eakin et at., J. Biol. Chem. 268(9): 6115-6118 (1993)) proceeded exactly as for cathepsin L, outlined above, using an enzyme concentration of 1 nM.

Cloned cathepsin S = target: T2, Cloned cathepsin S (Homo sapiens, UniProt P25774); assay: Inhibition of cathepsin S, Z-Val-Val-Arg-AMC fluorescence progress curves; conditions: for k/KI (kirr/KI): values without asterisk
T2 construct: made in house
T2 sequence (P25774 115-331): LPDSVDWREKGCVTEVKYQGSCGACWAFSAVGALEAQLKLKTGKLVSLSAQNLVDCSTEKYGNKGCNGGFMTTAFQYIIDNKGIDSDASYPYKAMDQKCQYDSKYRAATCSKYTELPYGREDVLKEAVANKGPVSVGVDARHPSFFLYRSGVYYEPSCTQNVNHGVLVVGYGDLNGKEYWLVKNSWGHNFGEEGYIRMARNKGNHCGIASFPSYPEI
Method: Stock solutions of the various inhibitors (10 mM) were made in DMF; dilutions were made in the same solvent. Cloned cathepsin S, (see Bromme et al., J. Biol. Chem. 268(&): 4832-4838 (1993)) was less than 1 nM in the assay. The assay buffer contained 100 mM phosphate at pH 6.5, 0.01% Triton, 2.5 mM dithiothreitol (DTT), and 2.5 mM ethylenediaminetetraacetic acid (EDTA). The substrate for cathepsin S was 10 μM Z-Val-Val-Arg-AMC (carbobenzyloxyvalinylvalinylarginylaminomethylcoumarin). The assays were initiated at 25° C. by addition of enzyme to 2 mL of assay buffer containing the substrate and the various inhibitors (30-0.001 μM). The increase in fluorescence at 460 nm with excitation at 380 nm was followed with time. Inactivation of cathepsin S was indicated by a downward curve in the increase in fluorescence with time. In the absence of inhibitors, the enzymatic production of free AMC was linear throughout the time course of inactivation examined. Data points were collected over at least 3 half-times of inactivation. The inhibition progress curves were analyzed using non-linear curve fitting software to compute the kobs values. Approximate second-order inactivation constants (kobs /[I]) were calculated for all compounds. For selected inhibitors, plots of 1/[I] vs. 1/kobs yielded the true constants kirr, KI, and kirr /KI, and were corrected for the presence of substrate by dividing KI (app.) by {1+[S]/Km}.

[2] = target: T3, Cathepsin L from rat liver (Rattus norvegicus, UniProt P07154); assay: Inhibition of cathepsin L, Z-Phe-Arg-AMC fluorescence progress curves; conditions: for k/KI (kirr/KI): values without asterisk
T3 construct: Cathepsin L from rat liver; from tissue; host or cells: rat liver
T3 sequence (P07154 114-288 limits assumed): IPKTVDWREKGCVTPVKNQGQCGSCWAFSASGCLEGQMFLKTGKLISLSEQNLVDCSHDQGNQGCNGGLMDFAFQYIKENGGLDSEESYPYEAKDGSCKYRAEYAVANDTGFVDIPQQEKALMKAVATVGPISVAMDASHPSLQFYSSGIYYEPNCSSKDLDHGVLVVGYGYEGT
T3 sequence (P07154 291-334 limits assumed): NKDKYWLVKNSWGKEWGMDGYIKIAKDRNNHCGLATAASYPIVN
Method: as §1

calpain = assay: Inhibition (inactivation) of calpain, Suc-Leu-Tyr-AMC; conditions: values marked * (or %), pH 7.5, 5 mM CaCl2, 25° C.
Method: The inhibitors were tested against calpain at 1 or 2% as for the other enzymes. The reaction conditions were 50 mM Tris, pH 7.5, 5 mM CaCl2, 2.5 mM DTT, assayed at 25° C. The substrate was 100 μM Suc-Leu-Tyr-AMC.

[3] = values marked *, 25° C., pH 6.2
[4] = values marked *, 25° C., pH 6.2, read-out: kobs /[I]* (approximate second-order inactivation constant)
[5] = values marked *, 25° C., pH 6.5

(S)-(E)-3-(4-morpholinecarbonylphenylalanyl)amino-5-methylsulfonyl-1-phenylsulfonyl-1-pentene [Mu-Phe-Met(O2)VSPh]
kobs /[I]* (approximate second-order inactivation constant) [1, 3]: 1,600 M^-1 sec^-1
k/KI (kirr/KI) (cruzain, from T. cruzi): 160,000 M^-1 sec^-1
k/KI (kirr/KI) (Cloned cathepsin S; 25° C., pH 6.5): 2,800,000 M^-1 sec^-1
k/KI (kirr/KI) ([2]; 25° C., pH 6.2): 250,000 M^-1 sec^-1

COC(=O)CCC(=O)N[C@@H](Cc1ccccc1)C(=O)N[C@H](/C=C/S(=O)(=O)c1ccccc1)CCc1ccccc1 [MeOSuc-Phe-HphVSPh, (S)-(E)-3-(carbomethoxypropionylphenylalanyl)amino-5-phenyl-1-phenylsulfonyl-1-pentene]
kinact/KI [1, 4]: 870 M⁻¹ s⁻¹
kinact/KI (cruzain, from T. cruzi; pH 6.2, values marked *, read-out: kobs /[I]* (approximate second-order inactivation constant)): 34000 M⁻¹ s⁻¹
kinact/KI (Cloned cathepsin S; values marked *, 25° C., pH 6.5, read-out: kobs /[I]* (approximate second-order inactivation constant)): 740000 M⁻¹ s⁻¹
kinact/KI [2, 4]: 47000 M⁻¹ s⁻¹

(S)-(E)-3-(4-morpholinecarbonylleucylleucyl)amino-4-(4-hydroxyphenyl)-1-phenylsulfonyl-1-butene [Mu-Leu-Leu-TyrVSPh]
kobs /[I]* (calpain): 10,800 M^-1 sec^-1
kobs /[I]* (calpain; listed as Mu-Leu-Leu-Tyr-VSPh): 7,600 M^-1 sec^-1
kobs /[I]* (approximate second-order inactivation constant) (Cloned cathepsin S; [5]): 25,100 M^-1 sec^-1

O=C(N[C@H](/C=C/S(=O)(=O)c1ccc2ccccc2c1)CCc1ccccc1)C(Cc1ccc2ccccc2c1)NC(=O)N1CCOCC1 (stereo partly drawn) [Mu-Np-HphVSNp, (S)-(E)-3-(4-morpholinecarbonyl-2-naphthylalanyl)amino-1-(2-napthylsulfonyl)-5-phenyl-1-pentene]
kobs /[I]* (approximate second-order inactivation constant) [1, 3]: 184,000 M^-1 sec^-1
Ki (cruzain, from T. cruzi): 25 nM
kirr (cruzain, from T. cruzi): 0.044 s⁻¹
k/KI (kirr/KI) (cruzain, from T. cruzi): 1,770,000 M^-1 sec^-1
kirr (Cloned cathepsin S): 0.10 s⁻¹
Ki (Cloned cathepsin S; corrected for substrate): 1.8 nM
k/KI (kirr/KI) (Cloned cathepsin S; 25° C., pH 6.5): 56,000,000 M^-1 sec^-1
kirr [2]: 0.14 s⁻¹
Ki ([2]; corrected for substrate): 18 nM
k/KI (kirr/KI) ([2]; 25° C., pH 6.2): 9,200,000 M^-1 sec^-1

CCCC[C@@H](/C=C/S(=O)(=O)c1ccccc1)NC(=O)[C@H](Cc1ccccc1)NC(=O)N1CCOCC1 [Mu-Phe-NleVSPh, (S)-(E)-3-(4-morpholinecarbonylphenylalanyl)amino-1-phenylsulfonyl-1-heptene]
k/KI (kirr/KI) ([1]; 25° C., pH 6.2): 7,600 M^-1 sec^-1
k/KI (kirr/KI) (cruzain, from T. cruzi): 77,000 M^-1 sec^-1
kobs /[I]* (approximate second-order inactivation constant) (Cloned cathepsin S; [5]): 2,300,000 M^-1 sec^-1
k/KI (kirr/KI) ([2]; 25° C., pH 6.2): 188,000 M^-1 sec^-1

(S)-(E)-3-(4-morpholinecarbonylvalyl)amino-4-phenyl-1-phenylsulfonyl-1-butene [Mu-Val-PheVSPh]
kobs /[I]* (calpain): 110 M⁻¹ s⁻¹

C[C@H](NC(=O)OC(C)(C)C)C(=O)N[C@H](/C=C/S(C)(=O)=O)Cc1ccccc1 [Boc-Ala-PheVSMe, (S)-(E)-3-(tert-2butoxycarbonylalanyl)amino-1-methylsulfonyl-4-phenyl-1-butene]
kobs /[I]* (calpain): 60 M⁻¹ s⁻¹

O=C(NCCCC[C@@H](/C=C/S(=O)(=O)c1ccccc1)NC(=O)[C@H](Cc1ccccc1)NC(=O)N1CCOCC1)c1ccccc1 [Mu-Phe-Lys(Bz)VSPh, (S)-(E)-3-(4-morpholinecarbonylphenylalanyl)amino-7-benzoylamino-1-phenylsulfonyl-1-heptene]
kobs /[I]* (approximate second-order inactivation constant) (cruzain, from T. cruzi; values marked *): 60,000 M^-1 sec^-1
kobs /[I]* (approximate second-order inactivation constant) (Cloned cathepsin S; [5]): 2,500,000 M^-1 sec^-1
kobs /[I]* (approximate second-order inactivation constant) [2, 3]: 210,000 M^-1 sec^-1

Cl.N[C@H](/C=C/S(=O)(=O)c1ccccc1)Cc1ccccc1 [Phe-VSPh, (S)-(E)-3-amino-4-phenyl-1-phenylsulfonyl-1-butene hydrochloride]
kobs /[I]* (calpain): < 50 M⁻¹ s⁻¹

O=C(N[C@H](/C=C/S(=O)(=O)c1ccc2ccccc2c1)CCc1ccccc1)[C@H](Cc1ccccc1)NC(=O)N1CCOCC1 [Mu-Phe-HphVSNp, (S)-(E)-3-(4-morpholinecarbonylphenylalanyl)amino-1-(2-napthylsulfonyl)-5-phenyl-1-pentene]
kirr [1]: 0.087 s⁻¹
Ki ([1]; corrected for substrate): 1400 nM
k/KI (kirr/KI) ([1]; 25° C., pH 6.2): 63,700 M^-1 sec^-1
Ki (cruzain, from T. cruzi): 110 nM
kirr (cruzain, from T. cruzi): 0.08 s⁻¹
k/KI (kirr/KI) (cruzain, from T. cruzi): 740,000 M^-1 sec^-1
kobs /[I]* (approximate second-order inactivation constant) (Cloned cathepsin S; [5]): > 5,400,000 M^-1 sec^-1

CSCC[C@@H](/C=C/S(=O)(=O)c1ccccc1)NC(=O)[C@H](Cc1ccccc1)NC(=O)N1CCOCC1 [Mu-Phe-MetVSPh, (S)-(E)-3-(4-morpholinecarbonylphenylalanyl)amino-1-phenylsulfonyl-6-thia-1-heptene]
k/KI (kirr/KI) ([1]; 25° C., pH 6.2): 7,000 M^-1 sec^-1
k/KI (kirr/KI) (cruzain, from T. cruzi): 111,000 M^-1 sec^-1
k/KI (kirr/KI) (Cloned cathepsin S; 25° C., pH 6.5): 4,000,000 M^-1 sec^-1
k/KI (kirr/KI) ([2]; 25° C., pH 6.2): 250,000 M^-1 sec^-1
